Patent US20110105477A1, “COMPOSITIONS AND METHODS RELATING TO HIV PROTEASE INHIBITION” (The Regents of the University of Michigan, priority 2007, published 2011)

What follows are compounds tested against HIV-1 protease (Human immunodeficiency virus type 1 group M subtype B, UniProt P04585) (assay: HIV protease inhibition assay). Settings: not given.
Format: biochemical
In the case of `CC1=CC(C)(C)Nc2ccc(OC(=O)c3ccccc3Br)cc21` [Compound 3], the “activity in HIVp inhibition assay (in words)” value is reported as “active”.

Same assay, conditions: HIVp inhibition
`COc1ccc(C(=O)Oc2ccc3c(c2)C(C)=CC(C)(C)N3)cc1` [Compound 2] was tested, and the IC50 was 18 µM.

Same assay, conditions: remaining HIV-1 protease activity at 150 μM compound
For `CC1=CC(C)(C)Nc2ccc(OC(=O)c3sc4cc([N+](=O)[O-])ccc4c3Cl)cc21`, the “Remain Activity” value was 56.93%.
For `CC1=CC(C)(C)Nc2ccc(OC(=O)c3cccnc3)cc21`, the “Remain Activity” value was 58.86%.
With `COc1cc(OC)cc(C(=O)Oc2ccc3c(c2)C(C)=CC(C)(C)N3)c1` the “Remain Activity” value was 59.22%.
`CC1=CC(C)(C)Nc2ccc(OC(=O)c3ccc4c(c3)OCO4)cc21` was tested, and the “Remain Activity” value was 63.58%.
For `CC1=CC(C)(C)Nc2ccc(OC(=O)c3cccs3)cc21`, the “Remain Activity” value was 64.08%.
In the case of `CC1=CC(C)(C)Nc2ccc(OC(=O)c3cccc4ccccc34)cc21`, the “Remain Activity” value is reported as 65.34%.
In the case of `CC1=CC(C)(C)Nc2ccc(OC(=O)c3ccco3)cc21`, the “Remain Activity” value is reported as 69.67%.
With `CC1=CC(C)(C)Nc2ccc(OC(=O)c3cccc([N+](=O)[O-])c3)cc21` the “Remain Activity” value was 73.01%.
`O=C1c2cccc([N+](=O)[O-])c2C(=O)N1c1ccc2[nH]c(=S)sc2c1` was tested, and the “Remain Activity” value was 36.93%.
In the case of `O=C1[C@H]2CCCC[C@H]2C(=O)N1c1ccc2[nH]c(=S)sc2c1`, the “Remain Activity” value is reported as 51.9%.
For `O=C(Nc1ccc2[nH]c(=S)sc2c1)c1ccccc1`, the “Remain Activity” value was 65.14%.
`Cc1cc(=O)n2nc(NCc3cccs3)nc2[nH]1` was tested, and the “Remain Activity” value was 63.59%.
`Cc1[nH]c2nc(NCc3cccc(Br)c3)nn2c(=O)c1Cl` was tested, and the “Remain Activity” value was 71.2%.
In the case of `Cc1cc(=O)n2nc(N3C(=O)[C@H]4CCCC[C@H]4C3=O)nc2[nH]1`, the “Remain Activity” value is reported as 67.49%.
For `O=c1c2c([nH]c3nc(COc4ccccc4)nn13)CCC2`, the “Remain Activity” value was 57.77%.
For `CCOc1ccccc1CNc1nc2[nH]c3c(c(=O)n2n1)CCC3`, the “Remain Activity” value was 75.44%.
For `O=C(Nc1ccc(F)cc1F)c1cc2n(n1)[C@H](C(F)(F)F)[C@H]1CCCC[C@H]1N2`, the “Remain Activity” value was 64.91%.
For `CC1=NNc2nc3c(c(=O)n(Cc4ccccc4)c(=O)n3C)n2C1`, the “Remain Activity” value was 65.08%.
`CC1=CC(C)(C)Nc2ccc(OC(=O)c3ccccc3Br)cc21` [drawing 433] was tested, and the “Remain Activity” value was 65.33%.
